# Like-named read-outs stand apart in the source and are kept apart here. Where a SMILES comes first, the peptide text is derived from it.
# Legend:
# HLA-B07.02 = HLA-B07.02 (Homo sapiens, UniProt P01889); test: Class I MHC peptide binding affinity (displacement of radiolabeled reference peptide)
# HLA-A02.01 [1] = molecular target: T1, HLA-A02.01 (Homo sapiens, UniProt P04439, D140Y/D185E/D98H/E176V/E277Q/G131W/G231S/I119V/I121R/I166T/I218V/N151K/N90K/P208A/P217A/Q86G/Q94H/R138H/R169H); test: Class I MHC peptide binding stability (pMHC-I dissociation, 125I-labeled light chain); conditions: for Stability (T1/2 (h)): allele A02.01; for Stability (half-life (hr.)): EGFR T790M peptides, HLA allele A02.01
# T1 construct: made in house; host or cells: E. coli
# HLA-A02.01 [2] = molecular target: HLA-A02.01 (Homo sapiens, UniProt P04439, D140Y/D185E/D98H/E176V/E277Q/G131W/G231S/I119V/I121R/I166T/I218V/L300P/L318F/N151K/N90K/P208A/P217A/Q86G/Q94H/R138H/R169H/T345S); test: Class I MHC peptide binding affinity (displacement of radiolabeled reference peptide); conditions: for IC50: allele A02.01, read-out: Observed Affinity (IC50, (nM)); for Kd: EGFR T790M peptides, HLA allele A02.01, read-out: Affinity
# Summary of the method: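 Displacement format in which varying amounts of peptide compete for 2 days with a radiolabeled reference ligand prebound to class I MHC, residual complex-associated label being measured after gel-filtration separation.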
# HLA-A24.02 = test: as above; parameters: species or system human; conditions: allele A24.02; read-out: Observed Affinity (IC50; (nM))
# [3] = Allele B07.02, read-out: Observed Affinity (IC50, (nM))
Compound,IC50 (HLA-B07.02; [3]) [nM],Stability (T1/2 (h)) (HLA-A02.01 [1]) [h],IC50 (HLA-A02.01 [2]) [nM],IC50 (HLA-A24.02) [nM],also measured
C[C@H](NC(=O)[C@H](C)NC(=O)[C@H](CCCNC(=N)N)NC(=O)[C@@H]1CCCN1C(=O)[C@@H]1CCCN1C(=O)[C@H](CCCNC(=N)N)NC(=O)[C@@H]1CCCN1C(=O)[C@@H]1CCCN1)C(=O)N[C@@H](CS)C(=O)O (H-PPRPPRAAC-OH; N-terminus and C-terminus assumed),32.8,–,–,–,–
CC(C)C[C@H](NC(=O)[C@H](CC(C)C)NC(=O)[C@H](Cc1c[nH]cn1)NC(=O)CNC(=O)[C@H](CCC(N)=O)NC(=O)[C@H](CC(N)=O)NC(=O)[C@H](CCC(N)=O)NC(=O)[C@@H](NC(=O)[C@@H](N)CCCNC(=N)N)C(C)C)C(=O)O (H-RVQNQGHLL-OH; N-terminus and C-terminus assumed),826,–,–,–,–
C[C@H](NC(=O)[C@H](C)NC(=O)[C@H](CCCNC(=N)N)NC(=O)[C@@H]1CCCN1C(=O)[C@@H]1CCCN1C(=O)[C@H](CCCNC(=N)N)NC(=O)[C@@H]1CCCN1C(=O)[C@@H]1CCCN1C(=O)CN)C(=O)N[C@@H](CS)C(=O)O (H-GPPRPPRAAC-OH; N-terminus and C-terminus assumed),48.6,–,–,–,–
CC(C)[C@H](NC(=O)[C@H](C)NC(=O)[C@@H]1CCCN1C(=O)[C@@H](NC(=O)[C@H](CCCNC(=N)N)NC(=O)[C@H](C)NC(=O)[C@@H]1CCCN1C(=O)[C@@H]1CCCN1C(=O)CN)C(C)C)C(=O)O (H-GPPARVPAV-OH; N-terminus and C-terminus assumed),–,–,–,–,IC50 (HLA-B07.02): 221 nM
CC[C@H](C)[C@H](NC(=O)[C@H](CC(=O)O)NC(=O)[C@H](Cc1ccccc1)NC(=O)[C@H](CC(C)C)NC(=O)[C@@H](NC(=O)[C@H](CCC(=O)O)NC(=O)[C@@H](NC(=O)[C@H](CCSC)NC(=O)[C@@H](N)Cc1c[nH]c2ccccc12)[C@@H](C)O)[C@@H](C)O)C(=O)O (H-WMTETLFDI-OH; N-terminus and C-terminus assumed),–,4,14,713,–
CSCC[C@H](NC(=O)[C@H](CC(C)C)NC(=O)[C@H](CCC(N)=O)NC(=O)[C@@H](N)CCSC)C(=O)N1CCC[C@H]1C(=O)N[C@@H](Cc1ccccc1)C(=O)NCC(=O)N[C@@H](CS)C(=O)N[C@@H](CC(C)C)C(=O)N[C@@H](CC(C)C)C(=O)O,–,0.4,20,23600,Stability (half-life (hr.)) (HLA-A02.01 [1]): 22.87 min; Kd (HLA-A02.01 [2]): 16.3 nM
CC[C@H](C)[C@H](NC(=O)[C@@H](NC(=O)[C@H](CC(C)C)NC(=O)[C@@H](NC(=O)[C@@H]1CCCN1C(=O)[C@H](CCCNC(=N)N)NC(=O)[C@H](CCCNC(=N)N)NC(=O)[C@H](CC(N)=O)NC(=O)[C@H](CCSC)NC(=O)[C@@H](N)CO)[C@@H](C)CC)[C@@H](C)O)C(=O)O,–,0.3,1200,16300,–
CC[C@H](C)[C@H](NC(=O)[C@@H](NC(=O)[C@@H](NC(=O)[C@H](CC(C)C)NC(=O)[C@@H](NC(=O)[C@@H]1CCCN1C(=O)[C@H](CCCNC(=N)N)NC(=O)[C@H](Cc1c[nH]c2ccccc12)NC(=O)[C@H](CC(N)=O)NC(=O)[C@@H](N)CCSC)[C@@H](C)CC)[C@@H](C)O)[C@@H](C)CC)C(=O)O (H-MNWRPILTII-OH; N-terminus and C-terminus assumed),–,0.4,1030,44900,–
CC[C@H](C)[C@H](NC(=O)[C@@H]1CCCN1C(=O)[C@H](CCCNC(=N)N)NC(=O)[C@H](Cc1c[nH]c2ccccc12)NC(=O)[C@H](CC(N)=O)NC(=O)[C@H](CCSC)NC(=O)CNC(=O)CNC(=O)[C@H](CCSC)NC(=O)[C@@H](N)CS)C(=O)O,–,0.4,346,4450,–
CC(C)C[C@H](NC(=O)[C@H](C)NC(=O)[C@H](CC(C)C)NC(=O)[C@H](Cc1c[nH]cn1)NC(=O)[C@@H]1CCCN1C(=O)[C@H](CCC(=O)O)NC(=O)[C@@H]1CCCN1C(=O)[C@H](CC(C)C)NC(=O)[C@@H](NC(=O)[C@@H](N)Cc1c[nH]cn1)C(C)C)C(=O)O [HVLPEPHLAL] (H-HVLPEPHLAL-OH; N-terminus and C-terminus assumed),1330,–,–,–,–
CC(C)C[C@H](NC(=O)[C@@H]1CCCN1C(=O)[C@@H]1CCCN1C(=O)[C@@H](NC(=O)[C@@H](NC(=O)[C@H](Cc1c[nH]c2ccccc12)NC(=O)[C@H](CC(C)C)NC(=O)[C@@H](NC(=O)[C@@H]1CCCN1C(=O)[C@@H](N)CCC(N)=O)C(C)C)[C@@H](C)O)[C@@H](C)O)C(=O)O (H-QPVLWTTPPL-OH; N-terminus and C-terminus assumed),109,–,–,–,–
CC(C)C[C@H](NC(=O)[C@@H](NC(=O)[C@H](CO)NC(=O)[C@@H]1CCCN1C(=O)[C@H](CC(C)C)NC(=O)[C@H](Cc1ccccc1)NC(=O)[C@@H](NC(=O)[C@H](Cc1ccc(O)cc1)NC(=O)[C@@H](NC(=O)CN)C(C)C)[C@@H](C)O)[C@@H](C)O)C(=O)O (H-GVYTFLPSTL-OH; N-terminus and C-terminus assumed),–,0.4,1200,7700,–
CC[C@H](C)[C@H](N)C(=O)N[C@@H](CCSC)C(=O)N[C@@H](CCC(N)=O)C(=O)N[C@@H](CC(C)C)C(=O)N[C@@H](CCSC)C(=O)N1CCC[C@H]1C(=O)N[C@@H](Cc1ccccc1)C(=O)NCC(=O)N[C@@H](CS)C(=O)N[C@@H](CC(C)C)C(=O)O,–,0.5,837,18100,Stability (half-life (hr.)) (HLA-A02.01 [1]): 30.94 min; Kd (HLA-A02.01 [2]): 653 nM
CC[C@H](C)[C@H](NC(=O)[C@H](CO)NC(=O)[C@H](Cc1c[nH]c2ccccc12)NC(=O)[C@H](Cc1c[nH]cn1)NC(=O)[C@H](C)NC(=O)[C@@H]1CCCN1C(=O)[C@H](CCSC)NC(=O)[C@H](CC(C)C)NC(=O)[C@H](CO)NC(=O)[C@@H](N)CC(C)C)C(=O)O,–,0.4,164,12400,–
CSCC[C@H](NC(=O)[C@H](CCC(=O)O)NC(=O)[C@H](CC(C)C)NC(=O)[C@H](CC(C)C)NC(=O)[C@H](CC(C)C)NC(=O)CNC(=O)[C@H](Cc1ccc(O)cc1)NC(=O)[C@H](CC(C)C)NC(=O)[C@@H]1CCCN1C(=O)[C@@H](N)C(C)C)C(=O)O (H-VPLYGLLLEM-OH; N-terminus and C-terminus assumed),27.9,–,–,–,–
CC[C@H](C)[C@H](NC(=O)[C@H](CC(C)C)NC(=O)[C@H](CCC(N)=O)NC(=O)[C@@H](N)C(C)C)C(=O)N[C@@H](CCSC)C(=O)N[C@@H](CCC(N)=O)C(=O)N[C@@H](CC(C)C)C(=O)N[C@@H](CCSC)C(=O)N1CCC[C@H]1C(=O)N[C@@H](Cc1ccccc1)C(=O)O,–,–,5490,4560,Kd (HLA-A02.01 [2]): 4940 nM
CC(C)C[C@H](NC(=O)[C@H](CCC(N)=O)NC(=O)[C@H](CC(C)C)NC(=O)[C@H](Cc1c[nH]cn1)NC(=O)[C@H](CC(N)=O)NC(=O)[C@H](CCC(N)=O)NC(=O)[C@H](CCCNC(=N)N)NC(=O)[C@H](CO)NC(=O)[C@@H](N)CCCCN)C(=O)O (H-KSRQNHLQL-OH; N-terminus and C-terminus assumed),78,–,–,–,–
CC(C)C[C@H](NC(=O)[C@H](CC(=O)O)NC(=O)[C@H](Cc1ccccc1)NC(=O)[C@@H]1CCCN1C(=O)[C@@H](NC(=O)[C@H](C)NC(=O)[C@@H]1CCCN1C(=O)[C@@H](N)C(C)C)C(C)C)C(=O)N[C@@H](Cc1c[nH]cn1)C(=O)N[C@@H](Cc1ccccc1)C(=O)O (H-VPAVPFDLHF-OH; N-terminus and C-terminus assumed),2110,–,–,–,–
CC(C)C[C@H](NC(=O)[C@@H]1CCCN1C(=O)[C@@H](N)CCCNC(=N)N)C(=O)N[C@@H](CCC(N)=O)C(=O)N[C@H](C(=O)N[C@@H](Cc1c[nH]cn1)C(=O)N[C@H](C(=O)N[C@@H](CC(C)C)C(=O)N1CCC[C@H]1C(=O)N[C@@H](CCC(=O)O)C(=O)O)C(C)C)[C@@H](C)O (H-RPLQTHVLPE-OH; N-terminus and C-terminus assumed),2530,–,–,–,–
CSCC[C@H](NC(=O)[C@H](CC(C)C)NC(=O)[C@H](CO)NC(=O)[C@H](CC(C)C)NC(=O)[C@@H]1CCCN1C(=O)[C@H](CCC(N)=O)NC(=O)[C@H](CCSC)NC(=O)[C@H](CCC(N)=O)NC(=O)[C@@H](N)Cc1ccccc1)C(=O)O,–,0.3,553,14600,–
CC[C@H](C)[C@H](NC(=O)[C@H](CC(N)=O)NC(=O)[C@@H](NC(=O)[C@H](CC(=O)O)NC(=O)[C@H](CCCCN)NC(=O)[C@@H]1CCCN1C(=O)[C@@H](N)CCSC)C(C)C)C(=O)N[C@@H](CCC(N)=O)C(=O)N[C@H](C(=O)O)C(C)C,12.5,–,–,–,–
CC(C)C[C@H](NC(=O)CNC(=O)[C@H](CO)NC(=O)[C@H](CC(=O)O)NC(=O)[C@H](CCCCN)NC(=O)[C@H](CO)NC(=O)[C@H](Cc1ccc(O)cc1)NC(=O)[C@H](C)NC(=O)[C@@H]1CCCN1C(=O)[C@@H](N)Cc1ccc(O)cc1)C(=O)O (H-YPAYSKDSGL-OH; N-terminus and C-terminus assumed),79.5,–,–,–,–

# From patent US20220282217A1, “COMPOSITIONS AND METHODS FOR PREPARING T CELL COMPOSITIONS AND USES THEREOF” (priority 2019, published 2022)
